Test results taken from patent publication US9149038B2, “4-amino-6-(heterocyclic)picolinates and 6-amino-2-(heterocyclic)pyrimidine-4-carboxylates and their use as herbicides” (Dow AgroSciences LLC, priority 2013, dated 2015).
Where two headings read alike, the source gives them in different places.

Assays:
[1] = system: Key Grass and Sedge Weeds as well as Grass Crops; test: Post-Emergent Test II: postemergent herbicidal activity, visual rating after 14 d (Table 8); format: in vivo; details: post-emergence, 336 h; for pest or weed control at 35 g/ha: 35 g ai/ha; for pest or weed control at 70 g/ha: 70 g ai/ha; for pest or weed control at 140 g/ha: 140 g ai/ha
How it was run: (§1)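 Scoring is visual, 0-100, at 14 d after application, comparing treated with untreated plants. Application: overhead track spray at 187 L/ha onto seedlings at 1-2 true leaves, in surfactant/crop-oil carrier.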

[2] = system: Key Broadleaf Weed and Crop Species; test: Post-Emergent Test II: postemergent herbicidal activity, visual rating after 14 d (Table 7); format: in vivo; details: post-emergence, 336 h; for pest or weed control at 35 g/ha: 35 g ai/ha; for pest or weed control at 70 g/ha: 70 g ai/ha; for pest or weed control at 140 g/ha: 140 g ai/ha
How it was run: as §1

[3] = barnyardgrass (Echinochloa crus-galli), read-out: Visual Growth Reduction (%) 14 Days After Application ECHCG
[4] = giant foxtail (Setaria faberi), read-out: Visual Growth Reduction (%) 14 Days After Application SETFA
[5] = maize, corn (Zea mays), read-out: Visual Growth Reduction (%) 14 Days After Application ZEAMX
[6] = rice (Oryza sativa), read-out: Visual Growth Reduction (%) 14 Days After Application ORYSA
[7] = wheat, spring (Triticum aestivum), read-out: Visual Growth Reduction (%) 14 Days After Application TRZAS
[8] = yellow nutsedge (Cyperus esculentus), read-out: Visual Growth Reduction (%) 14 Days After Application CYPES
[9] = lambsquarters (Chenopodium album), read-out: Visual Growth Reduction (%) 14 Days After Application CHEAL
[10] = oilseed rape, canola (Brassica napus), read-out: Visual Growth Reduction (%) 14 Days After Application BRSNN
[11] = redroot pigweed (Amaranthus retroflexus), read-out: Visual Growth Reduction (%) 14 Days After Application AMARE
[12] = sunflower (Helianthus annuus), read-out: Visual Growth Reduction (%) 14 Days After Application HELAN
[13] = velvetleaf (Abutilon theophrasti), read-out: Visual Growth Reduction (%) 14 Days After Application ABUTH
[14] = wild poinsettia (Euphorbia heterophylla), read-out: Visual Growth Reduction (%) 14 Days After Application EPHHL

| Structure (SMILES) | pest or weed control at 35 g/ha [1, 3] | pest or weed control at 70 g/ha [1, 3] | pest or weed control at 140 g/ha [1, 3] | pest or weed control at 35 g/ha [1, 4] | pest or weed control at 70 g/ha [1, 4] | pest or weed control at 140 g/ha [1, 4] | pest or weed control at 35 g/ha [1, 5] | pest or weed control at 70 g/ha [1, 5] | pest or weed control at 140 g/ha [1, 5] | pest or weed control at 35 g/ha [1, 6] | pest or weed control at 70 g/ha [1, 6] | pest or weed control at 140 g/ha [1, 6] | pest or weed control at 35 g/ha [1, 7] | pest or weed control at 70 g/ha [1, 7] | pest or weed control at 140 g/ha [1, 7] | pest or weed control at 35 g/ha [1, 8] | pest or weed control at 70 g/ha [1, 8] | pest or weed control at 140 g/ha [1, 8] | pest or weed control at 35 g/ha [2, 9] | pest or weed control at 70 g/ha [2, 9] | further results |
| --- | --- | --- | --- | --- | --- | --- | --- | --- | --- | --- | --- | --- | --- | --- | --- | --- | --- | --- | --- | --- | --- |
| COc1cc(-c2nc(C(=O)O)c(Cl)c(N)c2F)cc2c1OCO2 [Compound 15] | 0 to 29% | 0 to 29% | 0 to 29% | 0 to 29% | 0 to 29% | 0 to 29% | 0 to 29% | 0 to 29% | 0 to 29% | 0 to 29% | 0 to 29% | 0 to 29% | 0 to 29% | 0 to 29% | 0 to 29% | 0 to 29% | 0 to 29% | 0 to 29% | 0 to 29% | 45 to 59% | pest or weed control at 140 g/ha [2, 9]: 75 to 84%; pest or weed control at 35 g/ha [2, 10]: 0 to 29%; pest or weed control at 70 g/ha [2, 10]: 0 to 29%; pest or weed control at 140 g/ha [2, 10]: 0 to 29%; pest or weed control at 35 g/ha [2, 11]: 0 to 29%; pest or weed control at 70 g/ha [2, 11]: 0 to 29%; pest or weed control at 140 g/ha [2, 11]: 45 to 59%; pest or weed control at 35 g/ha [2, 12]: 0 to 29%; pest or weed control at 70 g/ha [2, 12]: 0 to 29%; pest or weed control at 140 g/ha [2, 12]: 0 to 29%; pest or weed control at 35 g/ha [2, 13]: 0 to 29%; pest or weed control at 70 g/ha [2, 13]: 0 to 29%; pest or weed control at 140 g/ha [2, 13]: 0 to 29%; pest or weed control at 35 g/ha [2, 14]: 0 to 29%; pest or weed control at 70 g/ha [2, 14]: 0 to 29%; pest or weed control at 140 g/ha [2, 14]: 0 to 29% |
| COC(=O)c1nc(-c2cccc3c2OC(F)(F)O3)c(F)c(N)c1Cl [Compound 73] | 0 to 29% | 0 to 29% | 0 to 29% | 0 to 29% | 0 to 29% | 0 to 29% | 0 to 29% | 0 to 29% | 0 to 29% | 0 to 29% | 0 to 29% | 0 to 29% | 0 to 29% | 0 to 29% | 0 to 29% | 0 to 29% | 45 to 59% | 45 to 59% | 95 to 100% | 95 to 100% | pest or weed control at 140 g/ha [2, 9]: 95 to 100%; pest or weed control at 35 g/ha [2, 10]: 85 to 94%; pest or weed control at 70 g/ha [2, 10]: 95 to 100%; pest or weed control at 140 g/ha [2, 10]: 95 to 100%; pest or weed control at 35 g/ha [2, 11]: 95 to 100%; pest or weed control at 70 g/ha [2, 11]: 95 to 100%; pest or weed control at 140 g/ha [2, 11]: 95 to 100%; pest or weed control at 35 g/ha [2, 12]: 75 to 84%; pest or weed control at 70 g/ha [2, 12]: 85 to 94%; pest or weed control at 140 g/ha [2, 12]: 95 to 100%; pest or weed control at 35 g/ha [2, 13]: 75 to 84%; pest or weed control at 70 g/ha [2, 13]: 75 to 84%; pest or weed control at 140 g/ha [2, 13]: 85 to 94%; pest or weed control at 35 g/ha [2, 14]: 0 to 29%; pest or weed control at 70 g/ha [2, 14]: 0 to 29%; pest or weed control at 140 g/ha [2, 14]: 0 to 29% |
